Laboratory results taken from article PMC8592027, “Structure-Guided Design of D-Galactal Derivatives with High Affinity and Selectivity for the Galectin-8 N-Terminal Domain” (ACS Medicinal Chemistry Letters, 2021).
Entries after “also recorded” stand apart in the source; their conditions may differ.

Tests used:
[1] = target: T1, galectin-3 (Homo sapiens, UniProt P17931); experiment: Competitive fluorescence polarization assay, galectin-3; type: binding; details: mean ± SEM of n = 4–8
T1 construct: made in house
T1 sequence (P17931 whole entry): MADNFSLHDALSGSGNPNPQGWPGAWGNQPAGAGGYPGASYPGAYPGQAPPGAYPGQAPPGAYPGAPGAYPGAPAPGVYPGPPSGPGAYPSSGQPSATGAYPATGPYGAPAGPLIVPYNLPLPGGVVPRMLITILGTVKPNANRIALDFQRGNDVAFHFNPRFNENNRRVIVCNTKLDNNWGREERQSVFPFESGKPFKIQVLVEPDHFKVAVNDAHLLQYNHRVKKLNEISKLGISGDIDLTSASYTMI
Protocol: (§1) 1. Competitive fluorescence polarization experiments:
(§2) Human galectins -1, -3, -4N, -4C, -7, -8N, -9N, and -9C were expressed and purified as previously described 30,41. Fluorescence polarisation experiments were performed using the PHERAstar FS plat e reader (software version 2.10 R3), and the fluorescence anisotropy of fluorescein tagged probes was measured by excitation at 485 nm and emission at 520 nm. The specific conditions for galectins -1, -3, -4N, -4C, -7, -8N, -9N, and -9C were kept as report ed30,41,42. The synthesised compounds were dissolved in pure DMSO at 20 mM concentration and diluted in PBS to 3-6 different concentrations, and each concentration was tested in duplicate. The highest inhibitor concentrations tested were 1.5 mM. The

[2] = target: T2, galectin-4N (N-terminal domain) (Homo sapiens, UniProt P56470); experiment: Competitive fluorescence polarization assay, galectin-4N; type: binding; details: mean ± SEM of n = 4–8
T2 construct: galectins (N = N-terminal domain, C = C-terminal domain); made in house
T2 sequence (P56470 19-150 limits assumed): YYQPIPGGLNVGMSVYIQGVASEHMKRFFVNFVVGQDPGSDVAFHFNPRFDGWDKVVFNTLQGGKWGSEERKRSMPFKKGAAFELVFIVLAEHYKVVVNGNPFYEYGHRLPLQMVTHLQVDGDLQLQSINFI
Protocol: as §1, §2

[3] = target: T3, galectin-8N (galectin-8 N-terminal domain) (Homo sapiens, UniProt O00214); experiment: Competitive fluorescence polarization assay, galectin-8N; type: binding
T3 construct: selective ligand for the galectin-8 N-terminal domain (galectin-8N); made in house
T3 sequence (O00214 19-152 limits assumed): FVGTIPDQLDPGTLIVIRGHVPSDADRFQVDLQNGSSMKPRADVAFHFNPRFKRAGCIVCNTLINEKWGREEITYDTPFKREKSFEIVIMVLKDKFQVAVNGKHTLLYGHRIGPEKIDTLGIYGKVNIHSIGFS
Protocol: All synthesized D-galactal derivatives had higher binding affinities for galectin-8N than D-galactal 3.
as §1, §2

[4] = system: MDA-MB-231 cancer cell line; experiment: MTS metabolic activity (cytotoxicity) assay, MDA-MB-231; type: cell-based, human; details: concentrations 1 to 100 μM, 24 hours
Protocol: (§3) We have investigated the cytotoxicity of the compounds 1, 6a, and 6c via a (3-(4,5-dimethylthiazol-2-yl)-5-(3-carboxymethoxyphenyl)-2-(4-sulfophenyl)-2H-tetrazolium) (MTS) assay in K562 and MDA-MB-231 cancer cell lines to establish the direct antitumor activity of compounds, as well as human peripheral blood mononuclear cells (PBMCs), to evaluate their safety.
(§4) Metabolic activity assay:
(§5) The metabolic activities of the cell lines were determined using the CellTiter 96 Aqueous One Solution cell proliferation assay (MTS Reagents, Promega, Madison, WI, USA), according to the manufacturer instructions. Briefly, the cells were treated with the selected compounds in 0.1% dimethyl sulfoxide (DMSO; vehicle), 0.1% DMSO (control vehicle), or medium (control) and seeded at a cell density of 5,500 cells/well (MDA-MB-231 cells) or 4 x 10^4 cells/well (K562 cells), 7000 cells/well (HepG2 cells) or 1 x 10^5 cells/well (human PBMCs) in duplicates (MDA-MB-231, K562, and […]) or triplicates for HepG2 cells (100 µL), in sterile 96-well plates. For the MDA-MB-231 and HepG2, the cells were left to adhere overnight before adding the compounds. The plates were then incubated for 24 hours (48 hours for HepG2), after which 15 µL of MTS reagent was added to each well. After 30-90 minute of incubation, the absorbance was measured at 492 nm using a microplate reader (Synergy HTX Multi-Mode; BioTek Instruments, Inc., VT, USA). […]
(§6) Bead Array Human inflammatory cytokine Kit (content: IL-1, IL-6, IL-8, IL-10, IL-12p). The flow cytometric analyses were performed on an Attune NxT flow cytometer (Thermo Fisher Scientific, […]
(§7) Data are represented as means ± standard deviation (SD) from three representative independent experiments.
(§8) All experiments were performed at least twice, with average values expressed as means ± SD. All data were analyzed with the statistical software GraphPad Prism 8.0 (GraphPad Software, Inc., CA, USA). by one-way ANOVA followed with Dunnett’s multiple compar ison test. Differences were considered non-significant for p > 0.05, and significant (*) for p < 0.05. […]

[5] = system: human peripheral blood mononuclear cells (PBMCs); experiment: MTS metabolic activity (cytotoxicity) assay, PBMCs; type: cell-based; details: concentrations up to 100 μM, 24 hours
Protocol: as §3, §4, §5, §6, §7, §8

Cn1c(CO[C@@H]2C=CO[C@H](CO)[C@@H]2O)nc2ccc(C(=O)O)cc21 [6a]
Kd [1]: 690 ± 30 µM | Kd [2]: 1400 ± 30 µM | Kd ([3]; mean ± SEM of n = 4–8): 48 ± 4 µM | selectivity for galectin-8N over galectin-1 ([3]; ratio of Kd values): 27 fold | selectivity for galectin-8N over galectin-3 ([3]; ratio of Kd values): 15 fold | cell viability (MTS), MDA-MB-231 [4]: None of the compounds decreased the viability; also recorded: no effect on the viability | direct cytotoxicity (MTS), PBMCs [5]: lack of direct cytotoxicity
